Experimental data published in ChEMBL document CHEMBL1137997, “Synthesis and activity of 1-aryl-1'-imidazolyl methyl ethers as non-thiol farnesyltransferase inhibitors” (Bioorg Med Chem Lett, 2004).

Tests used:
[1] = biological target: T1, Protein farnesyltransferase (Mus musculus) (UniProt Q61239+Q8K2I1); assay: Percent inhibition of H-Ras transformed NIH-3T3-cell proliferation at 100 nM; format: functional, cell-based; settings: NIH3T3
[2] = biological target: Protein farnesyltransferase (Bos taurus, UniProt P29702+P49355); assay: Inhibition of bovine farnesyltransferase; format: protein-complex assay
[3] = biological target: Geranylgeranyl transferase type I (Bos taurus, UniProt P29702+Q5EAD5); assay: Inhibition of bovine Geranylgeranyltransferase; format: protein-complex assay
[4] = biological target: Protein farnesyltransferase (Mus musculus, UniProt Q61239+Q8K2I1); assay: (§1) Inhibition of H-Ras transformed NIH-3T3-cell proliferation; format: functional, cell-based; settings: nih3t3
[5] = biological target: T1, Protein farnesyltransferase (Mus musculus); assay: as §1; format: functional; settings: concentration not given here

Structure (SMILES)	inhibition [1]	IC50 [2]	IC50 [3]	EC50 [4]	inhibition [5]
COc1cccc(-c2cc(C#N)ccc2COCc2cncn2Cc2ccc(Cl)cc2)c1	0%	2.2 nM	> 10000 nM	–	–
N#Cc1ccc(Cn2cncc2COCc2ccc(C#N)cc2-c2ccc3c(c2)OCO3)nc1	–	4.7 nM	5500 nM	–	–
N#Cc1ccc(COCc2cncn2Cc2ccc(C#N)nc2)c(-c2ccc3c(c2)OCO3)c1	–	3 nM	> 10000 nM	–	–
N#Cc1ccc(OCc2cncn2Cc2ccc(C#N)c(-c3cccc4ccccc34)c2)cc1	49%	0.32 nM	565 nM	–	–
N#Cc1ccc(Cn2cncc2COCc2ccc(C#N)cc2-c2ccc(OC(F)(F)F)cc2)cc1	–	0.65 nM	1300 nM	52 nM	–
N#Cc1ccc(COCc2cncn2Cc2ccc(C#N)cc2-c2cccc(Cl)c2)c(-c2cccc(Cl)c2)c1	0%	10 nM	87 nM	–	–
CCOc1cccc(-c2cc(C#N)ccc2COCc2cncn2Cc2ccc(C#N)nc2)c1	–	0.58 nM	> 10000 nM	–	–
CCOc1ccc(-c2cc(C#N)ccc2COCc2cncn2Cc2ccc(C#N)cc2)cc1	52%	1.2 nM	2300 nM	–	–
CCOc1cccc(-c2cc(C#N)ccc2COCc2cncn2Cc2ccc(Cl)cc2)c1	–	1.4 nM	> 10000 nM	–	–
N#Cc1ccc(Cn2cncc2COCc2ccc(C#N)cc2-c2cccc3ccccc23)cc1	43%	1.3 nM	2300 nM	–	–
N#Cc1ccc(OCc2cncn2Cc2ccc(C#N)c(-c3cccc4ccccc34)c2)nc1	–	0.9 nM	420 nM	–	–
N#Cc1ccc(COCc2cncn2Cc2ccc(C#N)cc2-c2cccc3ccccc23)cc1	–	0.96 nM	2100 nM	–	–
N#Cc1ccc(Cn2cncc2COCc2ccc(C#N)cc2-c2cccc(Cl)c2)cc1	–	0.37 nM	6800 nM	7.7 nM	–
N#Cc1ccc(Cn2cncc2COCc2ccc(C#N)cc2-c2cccc(Cl)c2)nc1	–	1.7 nM	2200 nM	–	–
N#Cc1ccc(COCc2cncn2Cc2ccc(C#N)cc2-c2cccc3ccccc23)c(-c2ccc3c(c2)OCO3)c1	0%	6.8 nM	1400 nM	–	–
CC(C)(C)c1ccc(-c2cc(C#N)ccc2COCc2cncn2Cc2ccc(C#N)cc2)cc1	49%	0.44 nM	870 nM	–	–
CC(=O)Nc1cccc(-c2cc(C#N)ccc2COCc2cncn2Cc2ccc(C#N)cc2)c1	92%	13 nM	–	–	–
N#Cc1ccc(Cn2cncc2COCc2ccc(C#N)cc2-c2cccc3c2OCO3)cc1	54%	0.81 nM	–	–	–
CS(=O)(=O)c1ccc(Cn2cncc2COCc2ccc(C#N)cc2-c2cccc(Cl)c2)cc1	–	96 nM	–	–	–

Structure (SMILES)	inhibition [1]	IC50 [2]	IC50 [3]	EC50 [4]	inhibition [5]
COc1cccc(-c2cc(C#N)ccc2COCc2cncn2Cc2ccc(C#N)cn2)c1	49%	4.4 nM	> 10000 nM	–	–
N#Cc1ccc(Cn2cncc2COCc2ccc(C#N)cc2-c2ccc(C(F)(F)F)cc2)cc1	–	4.3 nM	8600 nM	–	–
N#Cc1ccc(COCc2cncn2Cc2ccc(C#N)nc2)c(-c2cccc(Cl)c2)c1	43%	3 nM	> 10000 nM	–	–
N#Cc1ccc(Cn2cncc2COc2ccc(Cl)cc2-c2cccc(Cl)c2)cc1	0%	4 nM	1800 nM	–	–
N#Cc1ccc(Cn2cncc2COCc2cnc(C#N)cc2-c2cccc(Cl)c2)cc1	26%	4.3 nM	810 nM	–	–
Cc1ccc(-c2cc(C#N)ccc2COCc2cncn2Cc2ccc(C#N)cc2)cc1C	53%	0.6 nM	> 10000 nM	–	–
N#Cc1ccc(Cn2cncc2COCc2ccc(Cl)cc2-c2cccc(Cl)c2)cc1	–	0.62 nM	8200 nM	–	30%
N#Cc1ccc(Cn2cncc2CNCc2ccc(C#N)c(-c3cccc4ccccc34)c2)cc1	5%	0.65 nM	220 nM	–	–
N#Cc1ccc(Cn2cncc2COCc2ccc(C#N)c(-c3cccc4ccccc34)c2)cc1	5%	4.8 nM	1300 nM	–	–
N#Cc1ccc(COCc2cncn2Cc2ccc(Cl)cc2)c(-c2ccc3c(c2)OCO3)c1	11%	8.3 nM	> 10000 nM	–	–
Cn1cncc1[C@@](N)(c1ccc(Cl)cc1)c1ccc2c(c1)c(-c1cccc(Cl)c1)cc(=O)n2C [TIPIFARNIB]	–	–	1100 nM	–	–
CC(=O)c1ccc(-c2cc(C#N)ccc2COCc2cncn2Cc2ccc(C#N)cc2)cc1	–	1.3 nM	> 10000 nM	–	–
N#Cc1ccc(Cn2cncc2COCc2ccc(C#N)cc2-c2ccc3ccccc3c2)cc1	53%	0.92 nM	3400 nM	–	–
CC1=C(Br)C=C(C#N)C(=O)C1Cn1cncc1COCc1ccc(C#N)cc1-c1ccc2c(c1)OCO2 (stereo unspecified)	–	> 1000 nM	–	–	–
N#Cc1ccc(Cn2cncc2COCc2ccc(C#N)cc2-c2ccc(Cl)c(Cl)c2)cc1	10%	0.37 nM	730 nM	–	–
COc1ccc(-c2cc(C#N)ccc2COCc2cncn2Cc2ccc(C#N)cc2)cn1	25%	7.6 nM	> 10000 nM	–	–
N#Cc1ccc(Cn2cncc2COc2ccc(C#N)c(-c3cccc4ccccc34)c2)cc1	–	0.38 nM	240 nM	–	–
COc1cccc(-c2cc(C#N)ccc2COCc2cncn2Cc2ccc(C#N)nc2)c1	35%	1.5 nM	> 10000 nM	–	–
N#Cc1ccc(Cn2cncc2COCc2ccc(C#N)cc2-c2cccc(OC(F)(F)F)c2)cc1	54%	0.49 nM	990 nM	–	–
